Assays:
dayflower, VA = assay: Test E preemergence; format: in vivo, Commelina virginica; conditions: 21 days, scale 0 to 100
Excerpt: (§1) Seeds of plant species selected from bermudagrass (Cynodon dactylon), Surinam grass (Brachiaria decumbens), crabgrass, large (large crabgrass, Digitaria sanguinalis), crabgrass, naked (naked crabgrass, Digitaria nuda), foxtail, green (green foxtail, Setaria viridis), johnsongrass (Sorghum halepense), kochia (Kochia scoparia), morningglory (pitted morningglory, Ipomoea lacunosa), nutsedge, purple (purple nutsedge, Cyperus rotundus), ragweed (common ragweed, Ambrosia elation), mustard, black (black mustard, Brassica nigra), guineagrass (Panicum maximum), dallisgrass (Paspalum dilatatum), barnyardgrass (Echinochloa crus-galli), sandbur (southern sandbur, Cenchrus echinatus), sowthistle (common sowthistle, Sonchus oleraceous), ryegrass, Italian (Italian ryegrass, Lolium multiflorum), signalgrass (broadleaf signalgrass, Brachiaria platyphylla), dayflower, VA (Virginia (VA) dayflower, Commelina virginica), bluegrass (annual bluegrass, Poa annua), quackgrass (Elytrigia repens), mallow (common mallow, Malva sylvestris), buckwheat, wild (wild buckwheat, Polygonum convolvulus), leafy spurge (Euphorbia esula), common chickweed (Stellaria media), wild poinsettia (Euphorbia heterophylla), pigweed, palmer (palmer pigweed, Amaranthus palmeri), and pigweed (redroot pigweed, Amaranthus retroflexus) were planted into a blend of loam soil and sand and treated preemergence with test chemicals formulated in a non-phytotoxic solvent mixture which included a surfactant.
(§2) Treated plants and controls were maintained in a greenhouse for 21 days, after which time all species were compared to controls and visually evaluated. Plant response ratings, summarized in Table E, are based on a scale of 0 to 100 where 0 is no effect and 100 is complete control. A dash (-) response means no test result.

morningglory = assay: Test E preemergence; format: in vivo, Ipomoea lacunosa; conditions: 21 days, scale 0 to 100
Excerpt: as §1, §2

quackgrass = assay: Test E preemergence; format: in vivo, Elytrigia repens; conditions: 21 days, scale 0 to 100
Excerpt: as §1, §2

foxtail, green = assay: Test E preemergence; format: in vivo, Setaria viridis; conditions: 21 days, scale 0 to 100
Excerpt: as §1, §2

Italian ryegrass = assay: Test F postemergence; format: in vivo, Lolium multiflorum; conditions: scale 0 to 100
Excerpt: (§3) Seeds of plant species selected from corn (Zea mays), soybean (Glycine max), velvetleaf (Abutilon theophrasti), lambsquarters (Chenopodium album), wild poinsettia (Euphorbia heterophylla), pigweed, palmer (palmer pigweed, Amaranthus palmeri), common waterhemp (Amaranthus rudis), surinam grass (Brachiaria decumbens), large crabgrass (Digitaria sanguinalis), crabgrass, Brazil (Brazilian crabgrass, Digitaria horizontalis), fall panicum (Panicum dichotomiflorum), giant foxtail (Setaria faberii), green foxtail (Setaria viridis), goosegrass (Eleusine indica), johnsongrass (Sorghum halepense), common ragweed (Ambrosia elation), barnyardgrass (Echinochloa crus-galli), southern sandbur (Cenchrus echinatus), arrowleaf sida (Sida rhombifolia), Italian ryegrass (Lolium multiflorum), dayflower, VA (Virginia (VA) dayflower, Commelina virginica), field bindweed (Convolvulus arvensis), cocklebur (common cocklebur, Xanthium strumarium), morningglory (Ipomoea coccinea), nightshade (eastern black nightshade, Solanum ptycanthum), kochia (Kochia scoparia), yellow nutsedge (Cyperus esculentus), and hairy beggarticks (Bidens pilosa), were planted into a silt loam soil and treated preemergence with test chemicals formulated in a non-phytotoxic solvent mixture which included a surfactant.
(§4) At the same time, plants from these crop and weed species and also horseweed (Canada horseweed, Conyza canadensis), smartweed (ladysthumb smartweed, Polygonum persicaria), waterhemp_RES1, (ALS & Triazine resistant common waterhemp, Amaranthus rudis), and waterhemp_RES2, (ALS & HPPD resistant common waterhemp, Amaranthus rudis) were treated with postemergence applications of test chemicals formulated in the same manner. Plants ranged in height from 2 to 18 cm for postemergence treatments (1- to 4-leaf stage). Treated plants and controls were maintained in a greenhouse for 14 to 21 days, after which time all species were compared to controls and visually evaluated. Plant response ratings, summarized in Table F, are based on a scale of 0 to 100 where 0 is no effect and 100 is complete control. A dash (-) response means no test result.

southern sandbur = assay: Test F postemergence; format: in vivo, Cenchrus echinatus; conditions: scale 0 to 100
Summary of the method: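 Formulated in surfactant-containing non-phytotoxic solvent; pre: applied to seeded silt loam; post: applied to plants 2–18 cm (1–4 leaves); greenhouse 14–21 d; visual 0–100 rating vs controls.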

common ragweed [1] = assay: Test F postemergence; format: in vivo, Ambrosia elation; conditions: scale 0 to 100
Excerpt: as §3, §4

common chickweed = assay: Test E preemergence; format: in vivo, Stellaria media; conditions: 21 days, scale 0 to 100
Excerpt: as §1, §2

common ragweed [2] = assay: Test A postemergence; format: in vivo, Ambrosia elation
Summary of the method: (§5)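 After sowing in a sand–loam mix, pots received compound preemergence by directed soil spray, or postemergence once plants reached the one- to two-leaf stage (2–10 cm). Formulation contained surfactant in a non-phytotoxic solvent. Injury was scored visually after ~10 greenhouse days, 0–100 scale.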

galium = assay: Test A postemergence; format: in vivo, Galium aparine
Summary of the method: as §5

[3] = Postemergence, 500 g ai/ha, 0 to 100 scale (0 no effect, 100 complete control)
[4] = postemergence, 125 g ai/ha, about 10 days, visual rating on 0 to 100 scale (0 no effect, 100 complete control)

CCc1cc(C(=O)NCC(F)(F)F)nn1Cc1ccnc(C(F)(F)F)c1 [Compound 78, 5-ethyl-N-(2,2,2-trifluoroethyl)-1-[[(2-trifluoromethyl)-4-pyridinyl]methyl]-1H-pyrazole-3-carboxamide]
Plant response rating, Dayflower, VA (dayflower, VA; 16 g ai/ha): 85
Plant response rating, Dayflower, VA (dayflower, VA; 31 g ai/ha): 100
Plant response rating, Dayflower, VA (dayflower, VA; 62 g ai/ha): 100
Plant response rating, Dayflower, VA (dayflower, VA; 125 g ai/ha): 100
Plant response rating, Dayflower, VA (dayflower, VA; 250 g ai/ha): 100
Plant response rating, Morningglory (morningglory; 16 g ai/ha): 50
Plant response rating, Morningglory (morningglory; 31 g ai/ha): 70
Plant response rating, Morningglory (morningglory; 62 g ai/ha): 90
Plant response rating, Morningglory (morningglory; 125 g ai/ha): 100
Plant response rating, Morningglory (morningglory; 250 g ai/ha): 100
Plant response rating, Quackgrass (quackgrass; 16 g ai/ha): 60
Plant response rating, Quackgrass (quackgrass; 31 g ai/ha): 95
Plant response rating, Quackgrass (quackgrass; 62 g ai/ha): 100
Plant response rating, Quackgrass (quackgrass; 125 g ai/ha): 100
Plant response rating, Quackgrass (quackgrass; 250 g ai/ha): 100
Plant response rating, Foxtail, Green (foxtail, green; 16 g ai/ha): 50
Plant response rating, Foxtail, Green (foxtail, green; 31 g ai/ha): 100
Plant response rating, Foxtail, Green (foxtail, green; 62 g ai/ha): 100
Plant response rating, Foxtail, Green (foxtail, green; 125 g ai/ha): 100
Plant response rating, Foxtail, Green (foxtail, green; 250 g ai/ha): 100
Plant response rating, Italian Ryegrass (Italian ryegrass; Postemergence, 31 g ai/ha): 0
Plant response rating, Italian Ryegrass (Italian ryegrass; Postemergence, 125 g ai/ha): 40
Plant response rating, Italian Ryegrass (Italian ryegrass; Postemergence, 250 g ai/ha): 60
Plant response rating, Italian Ryegrass (Italian ryegrass; postemergence, 62 g ai/ha): 10
Plant response rating, Italian Ryegrass (Italian ryegrass; postemergence, 500 g ai/ha): 90
Plant response rating, Southern Sandbur (southern sandbur; Postemergence, 31 g ai/ha): 0
Plant response rating, Southern Sandbur (southern sandbur; Postemergence, 125 g ai/ha): 30
Plant response rating, Southern Sandbur (southern sandbur; Postemergence, 250 g ai/ha): 80
Plant response rating, Southern Sandbur (southern sandbur; postemergence, 62 g ai/ha): 10
Plant response rating, Southern Sandbur (southern sandbur; postemergence, 500 g ai/ha): 90
Plant response rating, Common Ragweed (common ragweed [1]; Postemergence, 31 g ai/ha): 65
Plant response rating, Common Ragweed (common ragweed [1]; Postemergence, 125 g ai/ha): 70
Plant response rating, Common Ragweed (common ragweed [1]; Postemergence, 250 g ai/ha): 80
Plant response rating, Common Ragweed (common ragweed [1]; postemergence, 62 g ai/ha): 50
Plant response rating, Common Ragweed (common ragweed [1]; postemergence, 500 g ai/ha): 95

CCc1cc(C(=O)NC(C)C)nn1Cc1ccnc(C(F)(F)F)c1 [Compound 103]
Plant response rating, Dayflower, VA (dayflower, VA; 16 g ai/ha): 80
Plant response rating, Dayflower, VA (dayflower, VA; 31 g ai/ha): 98
Plant response rating, Dayflower, VA (dayflower, VA; 62 g ai/ha): 100
Plant response rating, Dayflower, VA (dayflower, VA; 125 g ai/ha): 100
Plant response rating, Dayflower, VA (dayflower, VA; 250 g ai/ha): 100
Plant response rating, Morningglory (morningglory; 16 g ai/ha): 95
Plant response rating, Morningglory (morningglory; 31 g ai/ha): 100
Plant response rating, Morningglory (morningglory; 62 g ai/ha): 100
Plant response rating, Morningglory (morningglory; 125 g ai/ha): 100
Plant response rating, Morningglory (morningglory; 250 g ai/ha): 100
Plant response rating, Quackgrass (quackgrass; 16 g ai/ha): 95
Plant response rating, Quackgrass (quackgrass; 31 g ai/ha): 98
Plant response rating, Quackgrass (quackgrass; 62 g ai/ha): 100
Plant response rating, Quackgrass (quackgrass; 125 g ai/ha): 100
Plant response rating, Quackgrass (quackgrass; 250 g ai/ha): 100
Plant response rating, Foxtail, Green (foxtail, green; 16 g ai/ha): 100
Plant response rating, Foxtail, Green (foxtail, green; 31 g ai/ha): 100
Plant response rating, Foxtail, Green (foxtail, green; 62 g ai/ha): 100
Plant response rating, Foxtail, Green (foxtail, green; 125 g ai/ha): 100
Plant response rating, Foxtail, Green (foxtail, green; 250 g ai/ha): 100
Plant response rating, Common Chickweed (common chickweed; 16 g ai/ha): 98
Plant response rating, Common Chickweed (common chickweed; 31 g ai/ha): 100
Plant response rating, Common Chickweed (common chickweed; 62 g ai/ha): 100
Plant response rating, Common Chickweed (common chickweed; 125 g ai/ha): 100
Plant response rating, Common Chickweed (common chickweed; 250 g ai/ha): 100

CCONC(=O)c1cc(CC)n(Cc2cc(C(F)(F)F)no2)n1 [Compound 125]
Common Ragweed plant response rating (common ragweed [2]; [3]): 60
Common Ragweed plant response rating (common ragweed [2]; [4]): 20
Galium plant response rating (galium; [3]): 90
Galium plant response rating (galium; [4]): 60

CCOc1cc(C(=O)NC2CC2)nn1Cc1ccnc(OC(F)F)c1 [Compound 133]
Common Ragweed plant response rating (common ragweed [2]; [3]): 100
Common Ragweed plant response rating (common ragweed [2]; [4]): 60
Galium plant response rating (galium; [3]): 90
Galium plant response rating (galium; [4]): 80

CCc1cc(C(=O)NCC(F)(F)F)nn1Cc1cc(OC(F)F)nn1C [Compound 206]
Common Ragweed plant response rating (common ragweed [2]; [3]): 30
Common Ragweed plant response rating (common ragweed [2]; [4]): 0
Galium plant response rating (galium; Postemergence, 125 g ai/ha, 0 to 100 scale, 0 no effect, 100 complete control): 20
Galium plant response rating (galium; [3]): 80
